Measured values from patent US4590178A (Ajinomoto Company, Incorporated, priority 1982, dated 1986).

Legend:
[1] = tested on: spontaneously hypertensive rats; test: Antihypertensive activity: systolic blood pressure measured indirectly on conscious SHR after peroral dosing; format: in vivo, rat; conditions: for Systolic Blood Pressure, Pretreatment: SHR (male, 13 months, 2 per sample), before 35 mg/kg peroral single dose; for Systolic Blood Pressure, 4 hrs after administration / Δ Blood Pressure: SHR; for Systolic Blood Pressure, 4 hrs after administration: 4 hours after 35 mg/kg peroral single dose; for Δ Blood Pressure: 4 hours after 35 mg/kg peroral single dose versus pretreatment
Method: The antihypertensive activity of part of the amino acid derivatives prepared above, was determined.
As subject animals 2 SHR were used which had been trained enough and been confirmed to be hypertensive spontaneously hypertensive rats (male, 13 months of age, the body weight of 400 to 440 g) per sample.
As an instrument for measuring the blood pressure a Programmed Electro-Sphygmomanometer PE-300 (Narco Co., U.S.A.) was used, and the blood pressure was indirectly measured on conscious rats.
An aqueous solution or suspension of a sample (35 mg/kg) was once force-fed into the stomach by means of a peroral probe.
An antihypertensive activity of part of the amino acid derivatives prepared above was determined.
As subject animals there were used 2 SHR which had been trained enough and been confirmed to be hypertensive spontaneously hypertensive rats (male, 13 months of age, the body weight of 400~440 g) per sample.
As an instrument for measuring the blood pressure there was used Programmed Electro-Sphygmomanometer PE-300 (Narco Co., U.S.A.), and the blood pressure was indirectly measured on conscious rats.
An antihypertensive activity of the product prepared above was determined.

[2] = 27.7° C.

Row | Compound | Systolic Blood Pressure, Pretreatment [1] [mm Hg] | Systolic Blood Pressure, 4 hrs after administration [1] [mm Hg] | Δ Blood Pressure [1] [mm Hg] | .rho.Ka [2] | Median lethal dose (LD50) (rat) | Median lethal dose (LD50) (mouse)
1 | CCOP(=O)(CCc1ccccc1)N[C@@H](C)C(=O)N1CCC[C@H]1C(=O)N1CCC[C@H]1C(=O)[O-].[Na+] (stereo partly drawn) [Example 43, N--(O--ethyl-P--phenethylphosphonyl)-L-alanyl-L-prolyl-L-proline sodium salt] | 195 | 171 | -24 | – | – | –
2 | CSCC[C@H](NP(=O)(CCc1ccccc1)OCc1ccccc1)C(=O)N1CCC[C@H]1C(=O)N1CCC[C@H]1C(=O)[O-].CSCC[C@H](NP(=O)(CCc1ccccc1)OCc1ccccc1)C(=O)N1CCC[C@H]1C(=O)N1CCC[C@H]1C(=O)[O-].[Ca+2] (stereo partly drawn) [Example 55, N-(O-Benzyl-P-phenethylphosphonyl)-L-methionyl-L-prolyl-L-proline calcium salt] | 210 | 180 | -30 | – | – | –
3 | C[C@H](NP(=O)(O)OCc1ccccc1)C(=O)N1CCC[C@H]1C(=O)N1CCC[C@H]1C(=O)O.C[C@H](NP(=O)(O)OCc1ccccc1)C(=O)N1CCC[C@H]1C(=O)N1CCC[C@H]1C(=O)O.N.N [Example 57, Monobenzylphosphoryl-L-alanyl-L-propyl-L-proline diammonium salt] | 195 | 167 | -28 | – | – | –
4 | COC(=O)[C@@H]1CCCN1C(=O)[C@@H]1CCCN1C(=O)[C@H](C)NP(=O)([O-])CCc1ccccc1.[Na+] [Example 80, N-Phenethylphosphonyl-L-alanyl-L-prolyl-L-proline methylester sodium salt] | 193 | 183 | -10 | – | – | –
5 | C[C@H](NP(=O)(OCc1ccccc1)OCc1ccccc1)C(=O)N1CCC[C@H]1C(=O)N1CCC[C@H]1C(=O)O [Example 84, Dibenzylphosphoryl-L-alanyl-L-propyl-L-proline in the crystalline form] | 219 | 188 | -31 | 3.92 | more than 15 g/kg | more than 15 g/kg
6 | Dibenzylphoshoryl-L-alanyl-L-prolyl-L-alanine L-arginine salt [Example 12] | 193 | 182 | -11 | – | – | –
7 | Dibenzylphosphoryl-L-alanyl-L-prolyl-D-alanine L-arginine salt [Example 14] | 183 | 161 | -22 | – | – | –
8 | Dibenzylphosphoryl-L-alanyl-L-prolyl-D-proline L-arginine salt [Example 15] | 182 | 167 | -15 | – | – | –
9 | Dibenzylphosphoryl-L-alanyl-L-prolyl-L-aspartic acid L-arginine salt [Example 3] | 208 | 197 | -11 | – | – | –
10 | Dibenzylphosphoryl-L-alanyl-L-prolyl-L-proline L-arginine salt [Example 1] | 205 | 170 | -35 | – | – | –
11 | Dibenzylphosphoryl-L-alanyl-L-prolyl-L-proline L-lysine salt [Example 24] | 192 | 161 | -31 | – | – | –
12 | Dibenzylphosphoryl-L-alanyl-L-prolyl-L-proline calcium salt [Example 53] | 220 | 188 | -32 | – | – | –
13 | Dibenzylphosphoryl-L-alanyl-L-prolyl-L-proline dicyclohexylamine salt [Example 74] | 195 | 165 | -30 | – | – | –
14 | Dibenzylphosphoryl-L-alanyl-L-prolyl-L-serine L-arginine salt [Example 2] | 202 | 180 | -22 | – | – | –
15 | Dibenzylphosphoryl-L-alanyl-N-(2-indanyl)-glycyl-L-proline L-arginine salt [Example 31] | 199 | 169 | -30 | – | – | –
16 | Dibenzylphosphoryl-L-isoleucyl-L-prolyl-L-proline L-arginine salt [Example 18] | 192 | 171 | -21 | – | – | –
17 | Dibenzylphosphoryl-L-prolyl-L-tyrosine L-arginine salt [Example 4] | 207 | 195 | -12 | – | – | –
18 | Dibenzylphosphoryl-glycyl-L-prolyl-L-proline L-arginine salt [Example 19] | 196 | 181 | -15 | – | – | –
19 | Diethylphosphoryl-L-alanyl-L-prolyl-L-proline L-arginine salt [Example 25] | 183 | 156 | -27 | – | – | –
20 | Diethylphosphoryl-L-lysyl-L-prolyl-L-proline L-arginine salt [Example 23] | 190 | 165 | -25 | – | – | –
21 | Diethylphosphoryl-L-lysyl-L-prolyl-L-proline calcium salt [Example 56] | 204 | 181 | -23 | – | – | –
22 | Diethylphosphoryl-L-methionyl-L-prolyl-L-proline L-argine salt [Example 44] | 189 | 179 | -10 | – | – | –
23 | N-Phenethylphosphonyl-L-methionyl-L-prolyl-L-proline 2 sodium salt [Example 34] | 183 | 154 | -29 | – | – | –
24 | Phosphoryl-L-alanyl-L-prolyl-L-proline L-arginine salt [Example 8] | 196 | 177 | -19 | – | – | –
